What all share (assay type): in vivo
For one assay, the system named is Spodoptera exigua. Briefly: Spodoptera exigua test (leaf application), transgenic maize. The text has this: (§1) A synergistic effect in insecticides and acaricides is always present when the effect of the present invention's combinations is greater than the expected effect, which for a given combination can be calculated after S. R. Colby, Weeds 15 (1967), 20-22 as follows:
(§2) when • X is the kill rate expressed in % of the untreated control on using active compound A at an application rate of m g/ha or in a concentration of m ppm, • Y is the kill rate expressed in % of the untreated control on using active compound B at an application rate of n g/ha or in a concentration of n ppm and • Z is the kill rate expressed in % of the untreated control on using active compound C at an application rate of r g/ha or in a concentration of r ppm, • E is the efficacy on using active compounds A and B and C in application rates of m and n and r g/ha then
(§3) If the actual kill rate is greater than calculated, then the killing effect of the combination is superadditive, i.e., a synergistic effect is present. In this case, the actually observed kill rate has to be greater than that calculated from the above-recited formula for the expected kill rate (E).
Pots each holding 5 transgenic maize plants with Lepidoptera, Coleoptera and/or herbicide resistance are treated in 2 replications against the small mottled willow (Spodoptera exigua).
(§4) After the desired time, the kill in % is determined 100% means that all the caterpillars were killed; 0% means that no caterpillars were killed.

Another assay deals with Aphis gossypii. As to the kind of experiment: Aphis gossypii test (leaf application), transgenic cotton.
Text: as §1, §2
If the actual kill rate is greater than calculated, then the killing effect of the combination is superadditive, i.e., a synergistic effect is present. In this case, the actually observed kill rate has to be greater than that calculated from the above-recited formula for the expected kill rate (E). […]
After the desired time, the kill in % is determined 100% means that all the aphids were killed; 0% means that no aphids were killed.

The test system of assay [1] is Spodoptera frugiperda. Briefly: Spodoptera frugiperda test (drench application), transgenic maize.
Text: as §1, §2, §3
The earth of the pots each with 5 transgenic maize plants with Lepidoptera, Coleoptera and/or herbicide resistance is drenched with the desired product. Then, the plants are infected with larvae of the army worm (Spodoptera frugiperda).
as §4

Assay [2] concerns Spodoptera frugiperda. As to the kind of experiment: Spodoptera frugiperda test (leaf application), transgenic cotton.
Text: as §1, §2, §3
Individually potted transgenic cotton plants with Lepidoptera resistance and herbicide resistance (line DP444 BG/RR) are treated with the desired product against the army worm (Spodoptera frugiperda)
as §4

For assay [3], the system named is Spodoptera frugiperda. As to the kind of experiment: Spodoptera frugiperda test (leaf application), transgenic maize.
Text: as §1, §2, §3
Pots each holding 5 transgenic maize plants with Lepidoptera, Coleoptera and/or herbicide resistance are treated in 2 replications against the army worm (Spodoptera frugiperda).
as §4

For the next assay, the system named is Heliothis armigera. Briefly: Heliothis armigera test (leaf application), transgenic cotton.
Text: as §1, §2, §3
Individually potted transgenic cotton plants with Lepidoptera resistance and herbicide resistance (line DP444 BG/RR) are treated with the desired product against the cotton ball worm (Heliothis armigera).
as §4

For the compound `N#Cc1nn(-c2c(Cl)cc(C(F)(F)F)cc2Cl)c(N)c1[S+]([O-])C(F)(F)F` (stereo not drawn) [Fipronil], the “Kill in % after 4 d” value stood at 0% in the assay on Spodoptera exigua (4 ppm), 25% in the assay with Aphis gossypii (4 ppm) and 0% with Spodoptera frugiperda [1] (20 ppm).
As for `CNC(=O)c1cc(Cl)cc(C)c1NC(=O)c1cc(Br)nn1-c1ncccc1Cl` [(I-1)], the “Kill in % after 4 d” value with Spodoptera exigua (0.032 ppm) is 0%; in the assay on Spodoptera exigua (0.16 ppm), 0%; in the assay on Aphis gossypii (0.16 ppm), 0%; in the assay on Spodoptera frugiperda [2] (0.032 ppm), 70%; in the assay with Spodoptera frugiperda [3] (0.0064 ppm), 0%; in the assay with Spodoptera frugiperda [1] (4 ppm), 0%. In addition, the “Kill in % after 4 d” value with Spodoptera frugiperda [1] (20 ppm) and in the assay with Heliothis armigera (0.032 ppm) was 50% in each case. Besides, the “Kill in % after 1 d” value with Spodoptera exigua (0.16 ppm) is reported as 0%; in the assay with Spodoptera frugiperda [3] (0.16 ppm), 0%; in the assay on Spodoptera frugiperda [1] (20 ppm), 30%. Also, the “Kill in % after 6 d” value with Spodoptera frugiperda [2] (0.032 ppm) came to 15%. Also, in the assay on Spodoptera frugiperda [1] (20 ppm), the “Kill in % after 3 d” value stood at 45%.
With Spinosad, the “Kill in % after 4 d” value in the assay with Spodoptera exigua (0.16 ppm) was determined as 20%; with Spodoptera frugiperda [3] (0.16 ppm) it was 0%; with Spodoptera frugiperda [1] (4 ppm), 0%; with Heliothis armigera (0.16 ppm) it was 20%.
Consider `O=[N+]([O-])NC1=NCCN1Cc1ccc(Cl)nc1` [Imidacloprid], for which the “Kill in % after 1 d” value with Spodoptera exigua (4 ppm) and with Spodoptera frugiperda [3] (4 ppm) was 0% in each case. Besides, the “Kill in % after 6 d” value in the assay on Spodoptera frugiperda [2] (4 ppm) is 10%. In addition, the “Kill in % after 3 d” value in the assay on Spodoptera frugiperda [1] (4 ppm) turned out to be 0%.
In the case of Abamectin, the “Kill in % after 4 d” value in the assay with Spodoptera exigua (0.16 ppm) came out at 35%; with Spodoptera frugiperda [1] (4 ppm), 0%; in the assay on Heliothis armigera (0.16 ppm), 30%. Further, the “Kill in % after 1 d” value with Spodoptera frugiperda [3] (0.16 ppm) worked out at 10%; with Spodoptera frugiperda [1] (4 ppm), 0%.
`CN/C(=N\[N+](=O)[O-])NCc1cnc(Cl)s1` [Clothianidin]: the “Kill in % after 1 d” value in the assay on Spodoptera exigua (4 ppm) came to 0%. Besides, the results for the “Kill in % after 4 d” value with Spodoptera frugiperda [2] (0.16 ppm), in the assay on Spodoptera frugiperda [1] (4 ppm) and in the assay with Heliothis armigera (0.16 ppm) were 0%, 10% and 0%, respectively.
